Structures can show the parent of a compound that is named as a salt.
Tested on: behaviors of compound-treated mice
Experiment: Neuropharmacological Assay (SmartCube)
Format: in vivo
Settings: for minimal effective dose: Mus musculus, ip, 0.25 h, dose having 50% or more total activity in SmartCube, i.p., read-out: MED (minimal effective dose); for AD: ADHD (probability that activity matches class) / AG: analgesic (probability that activity matches class) / AX: anxiolytic (probability that activity matches class) / CE: cognitive enhancer (probability that activity matches class) / DP: anti-depressant (probability that activity matches class) / MS: mood stabilizer (probability that activity matches class) / PS: anti-psychotic (probability that activity matches class) / SD: sedative hypnotic (probability that activity matches class) / UN: uncharacterized CNS activity (probability that activity matches class): i.p. 15 min before behavioral test, most efficacious dose(s) of 3 doses
Outline: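 Mice dosed i.p. 15 min before testing, with compound in N-methyl-2-pyrrolidone/PEG/propylene glycol, were video-recorded and algorithmically compared with reference-drug behavioral signatures. This gave class-match probabilities (antidepressant, anxiolytic, etc.) at the most efficacious of 3 doses. MED was defined as the dose with ≥50% total activity, usually tested across 0.3–30 mpk.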

SMILES: CNC[C@H]1OCc2c(-c3ccncc3)cccc21 [Compound 40, (S)—N-Methyl-1-(4-(pyridin-4-yl)-1,3-dihydroisobenzofuran-1-yl)methanamine hydrochloride salt]
- minimal effective dose: ≤ 3 mg/kg
- AD: ADHD (probability that activity matches class): ++ (5% ≤ ++ <25%)
- AG: analgesic (probability that activity matches class): ++++ (50% ≤ ++++)
- AX: anxiolytic (probability that activity matches class): ++ (5% ≤ ++ <25%)
- CE: cognitive enhancer (probability that activity matches class): ++ (5% ≤ ++ <25%)
- DP: anti-depressant (probability that activity matches class): ++++ (50% ≤ ++++)
- MS: mood stabilizer (probability that activity matches class): + (LOQ ≤ + <5%)
- PS: anti-psychotic (probability that activity matches class): + (LOQ ≤ + <5%)
- SD: sedative hypnotic (probability that activity matches class): + (LOQ ≤ + <5%)
- UN: uncharacterized CNS activity (probability that activity matches class): + (LOQ ≤ + <5%)

SMILES: NC[C@@H]1OCCc2ccc(-c3ccncc3)cc21 [Compound 47, (R)-(7-(pyridin-4-yl)isochroman-1-yl)methanamine hydrochloride]
- minimal effective dose: 3 to 10 mg/kg
- AD: ADHD (probability that activity matches class): + (LOQ ≤ + <5%)
- AG: analgesic (probability that activity matches class): + (LOQ ≤ + <5%)
- AX: anxiolytic (probability that activity matches class): ++ (5% ≤ ++ <25%)
- CE: cognitive enhancer (probability that activity matches class): + (LOQ ≤ + <5%)
- DP: anti-depressant (probability that activity matches class): ++++ (50% ≤ ++++)
- MS: mood stabilizer (probability that activity matches class): + (LOQ ≤ + <5%)
- PS: anti-psychotic (probability that activity matches class): ++ (5% ≤ ++ <25%)
- SD: sedative hypnotic (probability that activity matches class): + (LOQ ≤ + <5%)
- UN: uncharacterized CNS activity (probability that activity matches class): + (LOQ ≤ + <5%)

SMILES: NC[C@H]1OCCc2ccc(-c3ccncc3)cc21 [Compound 48, (S)-(7-(pyridin-4-yl)isochroman-1-yl)methanamine hydrochloride]
- minimal effective dose: 3 to 10 mg/kg
- AD: ADHD (probability that activity matches class): + (LOQ ≤ + <5%)
- AG: analgesic (probability that activity matches class): + (LOQ ≤ + <5%)
- AX: anxiolytic (probability that activity matches class): ++ (5% ≤ ++ <25%)
- CE: cognitive enhancer (probability that activity matches class): ++ (5% ≤ ++ <25%)
- DP: anti-depressant (probability that activity matches class): + (LOQ ≤ + <5%)
- MS: mood stabilizer (probability that activity matches class): + (LOQ ≤ + <5%)
- PS: anti-psychotic (probability that activity matches class): ++ (5% ≤ ++ <25%)
- SD: sedative hypnotic (probability that activity matches class): +++ (25% ≤ +++ <50%)
- UN: uncharacterized CNS activity (probability that activity matches class): +++ (25% ≤ +++ <50%)

SMILES: CNC[C@@H]1OCCc2ccc(-c3ccncc3)cc21 [Compound 49, (R)—N-Methyl-1-(7-(pyridin-4-yl)isochroman-1-yl)methanamine hydrochloride]
- minimal effective dose: ≤ 3 mg/kg
- AD: ADHD (probability that activity matches class): + (LOQ ≤ + <5%)
- AG: analgesic (probability that activity matches class): ++ (5% ≤ ++ <25%)
- AX: anxiolytic (probability that activity matches class): ++ (5% ≤ ++ <25%)
- CE: cognitive enhancer (probability that activity matches class): ++ (5% ≤ ++ <25%)
- DP: anti-depressant (probability that activity matches class): ++ (5% ≤ ++ <25%)
- MS: mood stabilizer (probability that activity matches class): + (LOQ ≤ + <5%)
- PS: anti-psychotic (probability that activity matches class): ++ (5% ≤ ++ <25%)
- SD: sedative hypnotic (probability that activity matches class): + (LOQ ≤ + <5%)
- UN: uncharacterized CNS activity (probability that activity matches class): ++++ (50% ≤ ++++)

SMILES: CNC[C@H]1OCCc2ccc(-c3ccncc3)cc21 [Compound 50, (S)—N-Methyl-1-(7-(pyridin-4-yl)isochroman-1-yl)methanamine hydrochloride]
- minimal effective dose: 3 to 10 mg/kg
- AD: ADHD (probability that activity matches class): + (LOQ ≤ + <5%)
- AG: analgesic (probability that activity matches class): + (LOQ ≤ + <5%)
- AX: anxiolytic (probability that activity matches class): ++ (5% ≤ ++ <25%)
- CE: cognitive enhancer (probability that activity matches class): ++ (5% ≤ ++ <25%)
- DP: anti-depressant (probability that activity matches class): ++ (5% ≤ ++ <25%)
- MS: mood stabilizer (probability that activity matches class): + (LOQ ≤ + <5%)
- PS: anti-psychotic (probability that activity matches class): + (LOQ ≤ + <5%)
- SD: sedative hypnotic (probability that activity matches class): + (LOQ ≤ + <5%)
- UN: uncharacterized CNS activity (probability that activity matches class): ++++ (50% ≤ ++++)

SMILES: CCNCC1OCCc2c(-c3ccncc3)cccc21 (stereo not shown) [Compound 51, N-((5-(Pyridin-4-yl)isochroman-1-yl)methyl)ethanamine hydrochloride salt]
- minimal effective dose: 3 to 10 mg/kg
- AD: ADHD (probability that activity matches class): + (LOQ ≤ + <5%)
- AG: analgesic (probability that activity matches class): + (LOQ ≤ + <5%)
- AX: anxiolytic (probability that activity matches class): + (LOQ ≤ + <5%)
- CE: cognitive enhancer (probability that activity matches class): + (LOQ ≤ + <5%)
- DP: anti-depressant (probability that activity matches class): ++++ (50% ≤ ++++)
- MS: mood stabilizer (probability that activity matches class): + (LOQ ≤ + <5%)
- PS: anti-psychotic (probability that activity matches class): ++ (5% ≤ ++ <25%)
- SD: sedative hypnotic (probability that activity matches class): ++ (5% ≤ ++ <25%)
- UN: uncharacterized CNS activity (probability that activity matches class): + (LOQ ≤ + <5%)

SMILES: CNCC1OCCc2c(-c3cncs3)cccc21 (stereo not shown) [Compound 52, N-Methyl-1-(5-(thiazol-5-yl)isochroman-1-yl)methanamine hydrochloride]
- minimal effective dose: 3 to 10 mg/kg
- AD: ADHD (probability that activity matches class): + (LOQ ≤ + <5%)
- AG: analgesic (probability that activity matches class): + (LOQ ≤ + <5%)
- AX: anxiolytic (probability that activity matches class): + (LOQ ≤ + <5%)
- CE: cognitive enhancer (probability that activity matches class): + (LOQ ≤ + <5%)
- DP: anti-depressant (probability that activity matches class): ++++ (50% ≤ ++++)
- MS: mood stabilizer (probability that activity matches class): + (LOQ ≤ + <5%)
- PS: anti-psychotic (probability that activity matches class): + (LOQ ≤ + <5%)
- SD: sedative hypnotic (probability that activity matches class): + (LOQ ≤ + <5%)
- UN: uncharacterized CNS activity (probability that activity matches class): ++ (5% ≤ ++ <25%)

SMILES: CNCC1OCCc2c(-c3ccncn3)cccc21 (stereo not shown) [Compound 53, N-Methyl-1-(5-(pyrimidin-4-yl)isochroman-1-yl)methanamine hydrochloride salt]
- minimal effective dose: 3 to 10 mg/kg
- AD: ADHD (probability that activity matches class): ++ (5% ≤ ++ <25%)
- AG: analgesic (probability that activity matches class): + (LOQ ≤ + <5%)
- AX: anxiolytic (probability that activity matches class): ++ (5% ≤ ++ <25%)
- CE: cognitive enhancer (probability that activity matches class): + (LOQ ≤ + <5%)
- DP: anti-depressant (probability that activity matches class): ++++ (50% ≤ ++++)
- MS: mood stabilizer (probability that activity matches class): + (LOQ ≤ + <5%)
- PS: anti-psychotic (probability that activity matches class): + (LOQ ≤ + <5%)
- SD: sedative hypnotic (probability that activity matches class): + (LOQ ≤ + <5%)
- UN: uncharacterized CNS activity (probability that activity matches class): + (LOQ ≤ + <5%)

SMILES: CNCC1OCCc2c(-c3ccnnc3)cccc21 (stereo not shown) [Compound 54, N-Methyl-1-(5-(pyridazin-4-yl)isochroman-1-yl)methanamine hydrochloride salt]
- minimal effective dose: 3 to 10 mg/kg
- AD: ADHD (probability that activity matches class): + (LOQ ≤ + <5%)
- AG: analgesic (probability that activity matches class): + (LOQ ≤ + <5%)
- AX: anxiolytic (probability that activity matches class): + (LOQ ≤ + <5%)
- CE: cognitive enhancer (probability that activity matches class): ++ (5% ≤ ++ <25%)
- DP: anti-depressant (probability that activity matches class): ++++ (50% ≤ ++++)
- MS: mood stabilizer (probability that activity matches class): + (LOQ ≤ + <5%)
- PS: anti-psychotic (probability that activity matches class): + (LOQ ≤ + <5%)
- SD: sedative hypnotic (probability that activity matches class): + (LOQ ≤ + <5%)
- UN: uncharacterized CNS activity (probability that activity matches class): + (LOQ ≤ + <5%)

SMILES: CNCC1OCCc2c(-c3cnccn3)cccc21 (stereo not shown) [Compound 56, N-Methyl-1-(5-(pyrazin-2-yl)isochroman-1-yl)methanamine hydrochloride salt]
- minimal effective dose: 3 to 10 mg/kg
- AD: ADHD (probability that activity matches class): ++ (5% ≤ ++ <25%)
- AG: analgesic (probability that activity matches class): + (LOQ ≤ + <5%)
- AX: anxiolytic (probability that activity matches class): ++ (5% ≤ ++ <25%)
- CE: cognitive enhancer (probability that activity matches class): + (LOQ ≤ + <5%)
- DP: anti-depressant (probability that activity matches class): ++++ (50% ≤ ++++)
- MS: mood stabilizer (probability that activity matches class): + (LOQ ≤ + <5%)
- PS: anti-psychotic (probability that activity matches class): + (LOQ ≤ + <5%)
- SD: sedative hypnotic (probability that activity matches class): + (LOQ ≤ + <5%)
- UN: uncharacterized CNS activity (probability that activity matches class): + (LOQ ≤ + <5%)

SMILES: NCC1OCCc2ccc(-c3ccncn3)cc21 (stereo not shown) [Compound 57, 7-(Pyrimidin-4-yl)isochroman-1-yl)methanamine hydrochloride]
- minimal effective dose: 10 to 30 mg/kg
- AD: ADHD (probability that activity matches class): + (LOQ ≤ + <5%)
- AG: analgesic (probability that activity matches class): + (LOQ ≤ + <5%)
- AX: anxiolytic (probability that activity matches class): + (LOQ ≤ + <5%)
- CE: cognitive enhancer (probability that activity matches class): ++ (5% ≤ ++ <25%)
- DP: anti-depressant (probability that activity matches class): ++ (5% ≤ ++ <25%)
- MS: mood stabilizer (probability that activity matches class): + (LOQ ≤ + <5%)
- PS: anti-psychotic (probability that activity matches class): ++ (5% ≤ ++ <25%)
- SD: sedative hypnotic (probability that activity matches class): ++ (5% ≤ ++ <25%)
- UN: uncharacterized CNS activity (probability that activity matches class): +++ (25% ≤ +++ <50%)

SMILES: CNCC1OCCc2ccc(-c3ccncn3)cc21 (stereo not shown) [Compound 58, N-Methyl-1-(7-(pyrimidin-4-yl)isochroman-1-yl)methanamine hydrochloride salt]
- minimal effective dose: 10 to 30 mg/kg
- AD: ADHD (probability that activity matches class): + (LOQ ≤ + <5%)
- AG: analgesic (probability that activity matches class): + (LOQ ≤ + <5%)
- AX: anxiolytic (probability that activity matches class): ++ (5% ≤ ++ <25%)
- CE: cognitive enhancer (probability that activity matches class): + (LOQ ≤ + <5%)
- DP: anti-depressant (probability that activity matches class): + (LOQ ≤ + <5%)
- MS: mood stabilizer (probability that activity matches class): + (LOQ ≤ + <5%)
- PS: anti-psychotic (probability that activity matches class): + (LOQ ≤ + <5%)
- SD: sedative hypnotic (probability that activity matches class): + (LOQ ≤ + <5%)
- UN: uncharacterized CNS activity (probability that activity matches class): ++++ (50% ≤ ++++)

SMILES: NCC1OCCc2c(-c3cncs3)cccc21 (stereo not shown) [Compound 59, (5-(Thiazol-5-yl)isochroman-1-yl)methanamine hydrochloride salt]
- minimal effective dose: ≤ 3 mg/kg
- AD: ADHD (probability that activity matches class): ++ (5% ≤ ++ <25%)
- AG: analgesic (probability that activity matches class): ++ (5% ≤ ++ <25%)
- AX: anxiolytic (probability that activity matches class): ++ (5% ≤ ++ <25%)
- CE: cognitive enhancer (probability that activity matches class): + (LOQ ≤ + <5%)
- DP: anti-depressant (probability that activity matches class): ++++ (50% ≤ ++++)
- MS: mood stabilizer (probability that activity matches class): + (LOQ ≤ + <5%)
- PS: anti-psychotic (probability that activity matches class): + (LOQ ≤ + <5%)
- SD: sedative hypnotic (probability that activity matches class): +++ (25% ≤ +++ <50%)
- UN: uncharacterized CNS activity (probability that activity matches class): ++ (5% ≤ ++ <25%)

— US10780074B2, “Compounds and uses thereof” (Sunovion Pharmaceuticals Inc., priority 2017, dated 2020)
